According to patent US20230406829A1, “Heterocyclic Compound and Preparation Method and Use Thereof” (SYNTRON (JIANGSU) PHARMACEUTICAL TECHNOLOGY CO., LTD., priority 2020, published 2023):

Biological target: T1, VISTA protein modified by glycosylation (Homo sapiens, UniProt Q9H7M9)
T1 sequence (Q9H7M9 33-311): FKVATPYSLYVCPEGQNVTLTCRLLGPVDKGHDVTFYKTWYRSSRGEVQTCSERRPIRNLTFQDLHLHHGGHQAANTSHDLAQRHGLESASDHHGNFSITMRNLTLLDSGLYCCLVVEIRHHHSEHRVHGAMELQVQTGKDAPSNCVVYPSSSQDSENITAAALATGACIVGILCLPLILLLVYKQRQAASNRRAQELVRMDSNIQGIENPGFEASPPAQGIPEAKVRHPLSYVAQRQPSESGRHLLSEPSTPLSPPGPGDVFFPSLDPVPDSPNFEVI
Assay: Binding ability of compounds to VISTA protein (Biacore S200, CM5 chip)
Conditions: compound diluted in 1.05*PBS-P, fitted
Source text: Ability ability of compounds to VISTA protein • (I) Experimental Equipment and Reagents • 1. The machine model used in this experiment is: Biacore S200. • 2. S-series CM5 chip. […] Goods number: BR-1000-50, the purchase place is GE Healthcare. • 4.

| Compound | Kd |
| --- | --- |
| CC(=O)NCCNCc1cccc(-c2nc3c(C)c(-c4ccccc4)ccc3[nH]2)c1 [Compound 1] | 0.153 µM |
| Cc1c(-c2ccccc2)ccc2nc(-c3cccc(CNCCN)c3)[nH]c12 [Compound 7] | 0.461 µM |
| CC(=O)NCCNCc1ccc(-c2nc3ccc(-c4ccccc4)c(C)c3[nH]2)cc1 [Compound 10] | 0.338 µM |

Biological target: T2, recombinant human VISTA protein (Homo sapiens, UniProt Q9H7M9)
T2 construct: purchased R & D Systems 7126-B7
Assay: Inhibition of VISTA interaction: rescue of IFN-γ release in human PBMC (ELISA)
Type: cell-based
Conditions: 72 h, read-out: IC50 (VISTA interaction inhibitory activity)
Description: • 2. Determination of the inhibition effect of the compounds against VISTA interaction: • (1) Experimental Equipment and Reagents • 1. […] SpectraMax i3X Multifunction microplate reader (Molecular Device) • 3. […] Experimental procedure: • 1.1 Recombinant human VISTA (2.5 μg/ml) and anti-human CD3 antibody (2.5 μg/ml) were added to 96-well plates and stored in 4 C overnight. • 1.2 The next day, the anti-human VISTA antibody was added to the co-incubation for 30 min. Thereafter, cells were washed with 1*PBS and test compounds were added for 30 min. […] At 37 C, 5% CO2Below the conditions, the incubation was continued for 72 h. • 1.3 After separation by centrifugation at 4 C, 200 g*5 min, the supernatant was collected.

T2 sequence (Q9H7M9 with tags, fused parts or gaps limits assumed): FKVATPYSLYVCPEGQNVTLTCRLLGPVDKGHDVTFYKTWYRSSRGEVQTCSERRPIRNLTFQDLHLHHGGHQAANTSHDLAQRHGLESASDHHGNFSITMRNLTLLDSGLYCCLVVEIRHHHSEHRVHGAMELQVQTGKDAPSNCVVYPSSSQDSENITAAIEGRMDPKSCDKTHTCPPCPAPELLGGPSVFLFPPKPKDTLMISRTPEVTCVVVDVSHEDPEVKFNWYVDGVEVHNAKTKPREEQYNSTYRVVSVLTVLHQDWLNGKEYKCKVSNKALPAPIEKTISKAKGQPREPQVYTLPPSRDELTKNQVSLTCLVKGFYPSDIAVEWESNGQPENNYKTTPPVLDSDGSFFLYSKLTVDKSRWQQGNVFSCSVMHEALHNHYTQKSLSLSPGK

| Compound | IC50 |
| --- | --- |
| CC(=O)NCCNCc1cccc(-c2nc3c(C)c(-c4ccccc4)ccc3[nH]2)c1 [Compound 1] | 0.001 to 0.1 µM |
| Cc1c(-c2ccccc2)ccc2nc(-c3cccc(CNCC(=O)O)c3)[nH]c12 [Compound 2] | 0.1 to 1 µM |
| Cc1c(-c2ccccc2)ccc2[nH]c(-c3cccc(CN4CCCC[C@H]4C(=O)O)c3)nc12 [Compound 4] | 0.001 to 0.1 µM |
| Cc1c(-c2ccccc2)ccc2[nH]c(-c3cccc(CN[C@H](CO)C(=O)O)c3)nc12 [Compound 5] | 0.001 to 0.1 µM |
| Cc1c(-c2ccccc2)ccc2[nH]c(-c3cccc(CNC[C@@H](O)CC(=O)O)c3)nc12 [Compound 6] | 0.001 to 0.1 µM |
| Cc1c(-c2ccccc2)ccc2nc(-c3cccc(CNCCN)c3)[nH]c12 [Compound 7] | 0.001 to 0.1 µM |
| Cc1c(-c2ccccc2)ccc2[nH]c(-c3cccc(CN4CC[C@@H](O)C4)c3)nc12 [Compound 8] | 0.1 to 1 µM |
| Cc1c(-c2ccccc2)ccc2[nH]c(-c3cccc(CNC[C@@H]4CCNC4=O)c3)nc12 [Compound 9] | 0.001 to 0.1 µM |
| CC(=O)NCCNCc1ccc(-c2nc3ccc(-c4ccccc4)c(C)c3[nH]2)cc1 [Compound 10] | 0.1 to 1 µM |
| Cc1c(-c2ccccc2)ccc2[nH]c(-c3ccc(CNCC(=O)O)cc3)nc12 [Compound 11] | 0.001 to 0.1 µM |
| Cc1c(-c2ccccc2)ccc2nc(-c3ccc(CNCCO)cc3)[nH]c12 [Compound 12] | 0.1 to 1 µM |
| Cc1c(-c2ccccc2)ccc2[nH]c(-c3ccc(CN4CCCC[C@H]4C(=O)O)cc3)nc12 [Compound 13] | 0.001 to 0.1 µM |
| Cc1c(-c2ccccc2)ccc2[nH]c(-c3ccc(CN[C@H](CO)C(=O)O)cc3)nc12 [Compound 14] | 0.1 to 1 µM |
| Cc1c(-c2ccccc2)ccc2[nH]c(-c3ccc(CNC[C@@H](O)CC(=O)O)cc3)nc12 [Compound 15] | 0.001 to 0.1 µM |
| CC(=O)NCCNCc1cccc(-c2nc3c(Br)c(-c4ccccc4)ccc3[nH]2)c1 [Compound 16] | 0.001 to 0.1 µM |
| CC(=O)NCCNCc1cccc(-c2nc3c(Cl)c(-c4ccccc4)ccc3[nH]2)c1 [Compound 17] | 0.001 to 0.1 µM |
| CC(=O)NCCNCc1cccc(-c2nc3c(C)c(-c4ccc5c(c4)OCCO5)ccc3[nH]2)c1 [Compound 18] | 0.001 to 0.1 µM |
| COc1cccc(-c2nc3c(C)c(-c4ccccc4)ccc3[nH]2)c1 [Compound 19] | 0.1 to 1 µM |
| Cc1c(-c2ccccc2)ccc2[nH]c(-c3cccc(OCc4ccccc4)c3)nc12 [Compound 20] | 0.001 to 0.1 µM |
| Cc1c(-c2ccccc2)ccc2[nH]c(-c3cccc(OCc4cccnc4)c3)nc12 [Compound 21] | 0.1 to 1 µM |
| Cc1c(-c2ccccc2)ccc2[nH]c(-c3ccc(CNCCO)c(OCc4cccnc4)c3)nc12 [Compound 22] | 0.001 to 0.1 µM |

| Compound | IC50 |
| --- | --- |
| COc1cc(-c2nc3c(C)c(-c4ccccc4)ccc3[nH]2)ccc1CN1CC[C@@H](O)C1 [Compound 23] | 0.001 to 0.1 µM |
| COc1cc(-c2nc3c(C)c(-c4ccccc4)ccc3[nH]2)ccc1CNC[C@@H]1CCC(=O)N1 [Compound 24] | 0.001 to 0.1 µM |
| Cc1c(-c2ccccc2)ccc2nc(-c3ccc(CNCCO)cc3)cn12 [Compound 25] | 0.1 to 1 µM |
| CC(=O)NCCNCc1ccc(-c2cn3c(C)c(-c4ccccc4)ccc3n2)cc1 [Compound 26] | 0.1 to 1 µM |
| Cc1c(-c2ccccc2)ccc2nc(-c3cccc(CNCCO)c3)cn12 [Compound 27] | 0.001 to 0.1 µM |
| CC(=O)NCCNCc1cccc(-c2nc3ccc(Br)c(C)c3[nH]2)c1 [Compound 28] | 0.001 to 0.1 µM |
| CC(=O)NCCNCc1cccc(-c2nc3ccccc3[nH]2)c1 [Compound 29] | 0.001 to 0.1 µM |
| CC(=O)NCCNC(=O)c1cccc(-c2nc3c(C)c(-c4ccccc4)ccc3[nH]2)c1 [Compound 30] | 0.001 to 0.1 µM |
| Cc1c(-c2ccccc2)ccc2[nH]c(-c3cccc(C(=O)O)c3)nc12 [Compound 31] | 0.001 to 0.1 µM |
| CC(=O)NCCNCc1cccc(-c2nc3cc(-c4ccccc4)ccc3[nH]2)c1 [Compound 32] | 0.001 to 0.1 µM |
| CC(=O)NCCNCc1cccc(-c2nc3cc(C)ccc3[nH]2)c1 [Compound 34] | 0.001 to 0.1 µM |
| COc1ccc2[nH]c(-c3cccc(CNCCNC(C)=O)c3)nc2c1 [Compound 35] | 0.1 to 1 µM |
| CC(=O)NCCNCc1cccc(-c2nc3c(F)c(-c4ccccc4)ccc3[nH]2)c1 [Compound 36] | 0.001 to 0.1 µM |
| CC(=O)NCCNCc1cccc(-c2nc3c(C(F)(F)F)c(-c4ccccc4)ccc3[nH]2)c1 [Compound 37] | 0.1 to 1 µM |
| Cc1c(-c2ccccc2)ccc2[nH]c(-c3cccc(C(=O)NCCO)c3)nc12 [Compound 38] | 0.001 to 0.1 µM |
| Cc1c(-c2ccccc2)ccc2[nH]c(-c3cccc(OCCNCCO)c3)nc12 [Compound 39] | 0.1 to 1 µM |
| Cc1c(-c2ccccc2)ccc2[nH]c(-c3cccc(COCCN)c3)nc12 [Compound 40] | 0.1 to 1 µM |
| Cc1c(-c2ccccc2)ccc2[nH]c(-c3cccc(S(=O)(=O)NCCO)c3)nc12 [Compound 41] | 0.1 to 1 µM |
| CCCOC(=O)c1cccc(-c2nc3c(C)c(-c4ccccc4)ccc3[nH]2)c1 [Compound 42] | 0.1 to 1 µM |
| CC(=O)NCCNCc1cccc(-c2cc3ccccn3c2)c1 [Compound 43] | 0.1 to 1 µM |
| CC(=O)NCCNCc1cccc(-c2cc3c(C)c(-c4ccccc4)ccn3c2)c1 [Compound 44] | 0.1 to 1 µM |

| Compound | IC50 |
| --- | --- |
| CC(=O)NCCNCc1cccc(-c2cc3ccncn3c2)c1 [Compound 45] | 0.001 to 0.1 µM |
| COc1cc2cc(-c3cccc(CNCCNC(C)=O)c3)cn2cn1 [Compound 46] | 0.001 to 0.1 µM |
| CC(=O)NCCNCc1cccc(-c2cn3ccc(-c4ccccc4)nc3n2)c1 [Compound 47] | 0.001 to 0.1 µM |
| CC(=O)NCCNCc1cccc(-c2cn3ncc(-c4ccccc4)c(C)c3n2)c1 [Compound 48] | 0.1 to 1 µM |
| CC(=O)NCCNCc1cccc(-c2nc3cc(CO)ccn3n2)c1 [Compound 49] | 0.1 to 1 µM |
| CC(=O)NCCNCc1cccc(-c2nc3c(C)c(-c4ccccc4)ccn3n2)c1 [Compound 50] | 0.1 to 1 µM |
| CC(=O)NCCNCc1cccc(C2=CC3C=CC(c4ccccc4)=NC3O2)c1 (centres unmarked) [Compound 51] | 0.1 to 1 µM |
| CC(=O)NCCNCc1cccc(C2=NC3C=CC(c4ccccc4)=C(C)C3O2)c1 (centres unmarked) [Compound 52] | 0.1 to 1 µM |
| CC(=O)NCCNCc1cccc(C2=NC3C=CC(c4ccccc4)=C(C)C3S2)c1 (centres unmarked) [Compound 53] | 0.1 to 1 µM |
| CC(=O)NCCNCc1cccc(-c2nc3c(O)c(-c4ccccc4)ccc3[nH]2)c1 [Compound 54] | 0.1 to 1 µM |
| COc1c(-c2ccccc2)ccc2[nH]c(-c3cccc(CNCCNC(C)=O)c3)nc12 [Compound 55] | 0.001 to 0.1 µM |
| CCc1c(-c2ccccc2)ccc2[nH]c(-c3cccc(CNCCNC(C)=O)c3)nc12 [Compound 56] | 0.001 to 0.1 µM |
| CC(=O)NCCNCc1cccc(-c2nc3c(C#N)c(-c4ccccc4)ccc3[nH]2)c1 [Compound 57] | 0.001 to 0.1 µM |
| CC(=O)NCCNCc1cccc(-c2nc3c(CO)c(-c4ccccc4)ccc3[nH]2)c1 [Compound 58] | 0.1 to 1 µM |
| CC(=O)NCCNCc1cccc(-c2nc3c(O)cccc3[nH]2)c1 [Compound 59] | 0.001 to 0.1 µM |
| CC(=O)NCCNCc1cccc(-c2nc3c(O)c(O)ccc3[nH]2)c1 [Compound 60] | 0.001 to 0.1 µM |
| CC(=O)NCCNCc1cccc(-c2nc3c4c(ccc3[nH]2)OCCO4)c1 [Compound 61] | 0.1 to 1 µM |
| CC(=O)NCCNCc1cccc(-c2nc3cc(-c4ccco4)ccc3[nH]2)c1 [Compound 62] | 0.1 to 1 µM |
| CC(=O)NCCNCc1cccc(-c2nc3cc(OCc4ccccc4)ccc3[nH]2)c1 [Compound 63] | 0.1 to 1 µM |
| CC(=O)NCCNCc1cccc(-c2nc3cc(C#N)ccc3[nH]2)c1 [Compound 64] | 0.001 to 0.1 µM |
